Type in all cases: cell-based, Human
Experiment [1] deals with U-2 OS cells. In words: Western blot analysis of cyclin D1 expression. The settings on record: 10 μM, 48 hr.
The subject of experiment [2] is HCT116 p53^wt cells. The source says: […]. To investigate this effect, we analyzed the cell-cycle distribution. Cells treated for 48 hr with LCAHA or DMSO were pulse-labeled with BrdU for 1 hr and stained with fluorescein isothiocyanate (FITC)-anti-bromodeoxyuridine (BrdU) antibody and propidium iodide (PI). […].
[…]. To track the progression through the S phase and G0/G1 arrest precisely, we analyzed FITC-positive and -negative cells separately for cell-cycle distribution using ModFit LT software.
[…]. After that, the cells were either harvested by trypsinization and fixed with 96% ethanol, or cultured for additional 3-9 hours in the absence of BrdU before harvesting and fixation. The cells were stained with PI and FITC-conjugated anti-BrdU antibody (BioLegend, cat. 364104) and analysed with Fortessa flow cytometer (Becton Dickinson). Cell cycle distribution was analysed using ModFit LT Software (Verity Software House).
Figure S2. PI-BrdU pulse-chase labeling of HCT116 cells for the evaluation of cell cycle progression following LCAHA treatment. […].
HCT116 p53wt cells were seeded on culture dishes in growth medium containing 3.3% FBS and treated […]
the end of the treatment half of the medium was collected in a falcon tube, and the other half was supplemented with BrdU in a final concentration of 10 µM. After one hour, the medium containing BrdU was removed and the cells were trypsinized and fixed (time “t0”) or cultured in the medium previously collected in the falcon tube for additional 3, 6 or 9 hours. After that time the cells were trypsinized, fixed and stained with FITC conjugated anti-BrdU antibody and propidium iodide (PI). The cells were analyzed by flow cytometry using BD Fortessa cell analyzer and BD […] software. All cells, as well as FITC positive (BrdU+, top panel) and FITC negative (BrdU-, bottom panel) counts were exported to separate files and analyzed separately using ModFit LT Software. The graphs show mean ± SD values from three independent experiments. The statistical significance was evaluated using one-way ANOVA with Tukey’s […]

Experiment [3] concerns HCT116 p53^−/− cells. In words: Cell cycle analysis (PI / BrdU, flow cytometry). The settings on record: 5 or 10 μM, 48 hr. On the procedure: Low concentrations of LCAHA inhibit the growth of HCT116 cells without affecting their survival. To investigate this effect, we analyzed the cell-cycle distribution. Cells treated for 48 hr with LCAHA or DMSO were pulse-labeled with BrdU for 1 hr and stained with fluorescein isothiocyanate (FITC)-anti-bromodeoxyuridine (BrdU) antibody and propidium iodide (PI).
The cells were treated with DMSO or LCAHA for 48 hours and pulse-labelled with 10 μM bromodeoxyuridine (BrdU, Sigma Aldrich) for the last hour of the treatment. After that, the cells were either harvested by trypsinization and fixed with 96% ethanol, or cultured for additional 3-9 hours in the absence of BrdU before harvesting and fixation. The cells were stained with PI and FITC-conjugated anti-BrdU antibody (BioLegend, cat. 364104) and analysed with Fortessa flow cytometer (Becton Dickinson). Cell cycle distribution was analysed using ModFit LT Software (Verity Software House).
On the technique in general: Flow cytometry measures light scatter and fluorescence of single cells or particles in a stream.

Experiment [4] has as its system MCF-7 cells. The experiment can be described thus: Synchronization-release assay (serum starvation and release). The settings on record: pre-treatment during 2 days serum starvation, release 10% FBS 24 hr. The text has this:
Cyclin D1 is a key modulator of the transition through the G1/S checkpoint and is known to be sensitive to proliferative signals delivered by the mitogens. To evaluate the interplay between the mitogens provided by the serum and LCAHA, we performed a synchronization-release assay on the cells treated with LCAHA. To assess the involvement of cyclin D1 in this interplay, we used MCF-7 (cyclin D1-dependent) and SAOS-2 (cyclin D1-negative) cells. The cells were synchronized in G0/G1 by the removal of fetal bovine serum (FBS) for 2 days of the culture in the presence of LCAHA. After this time, the cells were released by the addition of medium containing 10% FBS for 24 hr (still in the presence of the compound).
Figure S4. The analysis of the progression of MCF-7 and SAOS-2 cells through the cell cycle following serum starvation and release by the addition of serum. Related to […]
For the experiment, cyclin D1-dependent MCF-7 and cyclin D1-negative SAOS-2 cell lines were used.
The cells were synchronized in G0/G1 by the removal of FBS for 2 days of the culture in the presence of LCAHA compound. […] The cells were fixed, stained with PI and analysed for cell cycle distribution with ModFit LT Software. […] The statistical significance was evaluated using t-test: * p<0.05, ** […]

Experiment [5] deals with HCT116 p53^wt cells. In words: Caspase 3/7 activity (Caspase-Glo 3/7). On the procedure: To evaluate whether the observed effects are accompanied by the induction of apoptosis, we examined the activation of caspases 3 and 7 in HCT116 p53^wt cells.
The cells were plated on the 96-well white, flat bottom plates (Falcon) and treated with DMSO, LCAHA or Staurosporine. For the detection of caspase activity Caspase-Glo 3/7 Assay System was used (Promega) according to the manufacturer’s instructions.

The test system of experiment [6] is HCT116 p53^wt cells. In words: Western blot analysis of protein expression. The source says:
The progression from G1 to S phase relies largely on the expression and activity of D cyclins. To verify whether the observed impairment in cell-cycle progression following LCAHA treatment is associated with D cyclins, we investigated the expression of cyclins D1 and D3 in HCT116 p53^wt and HCT116 p53^−/− cells.

In experiment [7] the test system is HCT116 cells. In words: Membrane integrity LDH release assay. The settings on record: 48 hr of treatment. The method, then: To test the biological activity of the compounds, we performed MTT (3-(4,5-dimethylthiazol-2-yl)-2,5-diphenyltetrazolium bromide) and lactate dehydrogenase (LDH) release assays. In addition, the importance of p53 status was evaluated by the use of two variants of HCT116 cells: HCT116 p53^wt (wild-type) and HCT116 p53^−/−. To track not only the toxic (lethal) but also growth-inhibitory (GI) effect in the MTT assay, we treated the cells for 6 days. In the experiment the toxic effect, but not the GI effect, was expected to be accompanied by LDH release.
Membrane integrity LDH release assay was performed using CytoTox-ONE kit (Promega). The cells were seeded on 96-well black plates, and after 24 hours treated with the compounds or DMSO for 2 days. The assay was performed according to the manufacturer’s instructions. For each well the data was calculated as a % of total LDH content, measured for the lysed cells, treated in the same manner as cells on that well.
A general note: Release of lactate dehydrogenase indicates damage to the cell membrane.

[8] abbreviates: 5 μM, 48 hr, nine hours after BrdU pulse.

`C[C@H](CCC(=O)NO)[C@H]1CC[C@H]2[C@@H]3CC[C@@H]4C[C@H](O)CC[C@]4(C)[C@H]3CC[C@]12C` [LCAHA, N-(hydroxy)-3-hydroxylithocholanamide]: in experiment [1], the “cyclin D1 expression” value was “significant decrease of cyclin D1 expression”. Besides, in experiment [2], the “BrdU incorporation (rate of DNA synthesis)” value is “dose-dependent decrease in the rate of DNA synthesis”. Further, in experiment [2] (setting [8]), the “BrdU^− cells that left G0/G1 phase and entered the S phase” value worked out at 20%; the “proportion of BrdU^+ cells in G0/G1 phase” value turned out to be 24%; the “proportion of BrdU^+ cells remaining in the S phase” value worked out at 56%. In experiment [2] (5 μM, control siRNA-transfected HCT116 cells), the cell-cycle progression entry is “blocked the cell-cycle progression”. For the same compound, the G0/G1 arrest entry in experiment [2] (5 or 10 μM, 48 hr) is “mild, but significant G0/G1 arrest”. Further, the G0/G1 arrest entry in experiment [3] is listed as “mild, but significant G0/G1 arrest”. Besides, the “entry into the S phase after serum release” value in experiment [4] was “significantly inhibited the entry into the S phase”. Besides, in experiment [5] (10 μM), the “caspase 3 and 7 activity” value is “increase of caspase activity significant”. Also, in experiment [5] (1 or 5 μM, 48 or 72 hr), the “caspase 3 and 7 activity” value was “weak and non-significant increase”. Further, the “cyclin D1 level over time course” value in experiment [6] (5 μM, 24, 26, 28, 30, or 32 hr) is reported as “significant decrease in cyclin D1”. In addition, in experiment [6] (5 or 20 μM, 48 hr), the “cyclin D1 expression” value is given as “significant, dose-dependent decrease” and the “cyclin D3 expression” value is “no effect”. Moreover, the LDH release result in experiment [7] is “observed only at the concentrations corresponding to the high-concentration toxic effect”.

The values above are taken from paper PMC5404848 (Cell Chemical Biology, 2017).
